Experimental data from the NIST ThermoML archive (doi:10.1021/je049585t).
± gives the expanded uncertainty stated by the source.

Test: molar heat capacity at constant pressure
Conditions: 101.33 kPa

CC1=CCC2C(=O)OC(=O)C2C1 (stereo not given) [4-methyl-cyclohex-4-ene-1, 2-dicarboxylic acid anhydride]
Conditions	molar heat capacity at constant pressure [J/K/mol]
80 K, Crystal	65.23 ± 0.62
80.45 K, Crystal	63.17 ± 0.61
81.95 K, Crystal	63.26 ± 0.61
83.53 K, Crystal	63.39 ± 0.61
85 K, Crystal	64.37 ± 0.61
85.17 K, Crystal	63.65 ± 0.61
86.78 K, Crystal	64.05 ± 0.61
88.38 K, Crystal	64.45 ± 0.61
89.95 K, Crystal	65.12 ± 0.62
90 K, Crystal	64.76 ± 0.84
91.5 K, Crystal	65.63 ± 0.85
93.03 K, Crystal	66.26 ± 0.85
94.54 K, Crystal	66.83 ± 0.86
95 K, Crystal	66.05 ± 0.85
96.03 K, Crystal	67.49 ± 0.86
97.51 K, Crystal	68.15 ± 0.86
98.97 K, Crystal	68.87 ± 0.86
100 K, Crystal	67.97 ± 0.86
100.41 K, Crystal	69.38 ± 0.86
101.84 K, Crystal	69.93 ± 0.87
103.26 K, Crystal	70.47 ± 0.87
104.66 K, Crystal	71.22 ± 0.88
105 K, Crystal	70.28 ± 0.87
106.05 K, Crystal	71.84 ± 0.88
107.43 K, Crystal	72.36 ± 0.88
108.8 K, Crystal	72.92 ± 0.89
110 K, Crystal	72.81 ± 0.89
110.15 K, Crystal	73.65 ± 0.89
111.5 K, Crystal	74.07 ± 0.89
112.83 K, Crystal	74.66 ± 0.9
114.15 K, Crystal	75.18 ± 0.9
115 K, Crystal	75.44 ± 0.9
115.47 K, Crystal	75.87 ± 0.91
116.77 K, Crystal	76.33 ± 0.91
118.07 K, Crystal	76.91 ± 0.91
119.35 K, Crystal	77.54 ± 0.91
120 K, Crystal	78.06 ± 0.92
120.63 K, Crystal	78.18 ± 0.91
121.9 K, Crystal	78.77 ± 0.92
123.16 K, Crystal	79.3 ± 0.92
124.42 K, Crystal	79.75 ± 0.92
125 K, Crystal	80.62 ± 0.93
125.66 K, Crystal	80.33 ± 0.93
126.9 K, Crystal	80.87 ± 0.93
128.14 K, Crystal	81.35 ± 0.93
129.36 K, Crystal	81.93 ± 0.94
130 K, Crystal	83.08 ± 0.94
130.58 K, Crystal	82.44 ± 0.94
131.83 K, Crystal	82.95 ± 0.94
132.96 K, Crystal	83.78 ± 0.95
134.16 K, Crystal	84.15 ± 0.95
135 K, Crystal	85.43 ± 0.96
135.38 K, Crystal	84.59 ± 0.95
136.59 K, Crystal	85.28 ± 0.96
137.72 K, Crystal	85.94 ± 0.96
138.93 K, Crystal	86.2 ± 0.96
140 K, Crystal	87.67 ± 0.97
140.14 K, Crystal	86.69 ± 0.96
141.27 K, Crystal	86.97 ± 0.96
142.48 K, Crystal	87.65 ± 0.97
143.6 K, Crystal	88.22 ± 0.97
144.72 K, Crystal	88.9 ± 0.97
145 K, Crystal	89.84 ± 0.98
145.85 K, Crystal	89.28 ± 0.98
146.98 K, Crystal	89.92 ± 0.98
148.1 K, Crystal	90.42 ± 0.98
149.22 K, Crystal	90.83 ± 0.99
150 K, Crystal	91.95 ± 0.99
150.43 K, Crystal	91.65 ± 0.99
151.55 K, Crystal	91.97 ± 0.99
153.01 K, Crystal	92.74 ± 1
154.67 K, Crystal	93.61 ± 1
155 K, Crystal	94.06 ± 1
156.32 K, Crystal	94.64 ± 1
158.04 K, Crystal	95.26 ± 1
159.69 K, Crystal	95.96 ± 1
160 K, Crystal	96.19 ± 1
161.35 K, Crystal	96.78 ± 1
162.97 K, Crystal	97.8 ± 1
164.62 K, Crystal	98.83 ± 1
165 K, Crystal	98.39 ± 1
166.25 K, Crystal	99.65 ± 1
167.8 K, Crystal	100.5 ± 1
169.46 K, Crystal	101.34 ± 1
170 K, Crystal	100.7 ± 1
171.37 K, Crystal	102.49 ± 1.1
173.61 K, Crystal	103.54 ± 1.1
175 K, Crystal	103.17 ± 1.1
175.85 K, Crystal	104.8 ± 1.1
178.12 K, Crystal	106.11 ± 1.1
180 K, Crystal	105.81 ± 1.1
180.28 K, Crystal	107.31 ± 1.1
182.43 K, Crystal	108.56 ± 1.1
184.61 K, Crystal	109.77 ± 1.1
185 K, Crystal	108.67 ± 1.1
186.68 K, Crystal	111.17 ± 1.1
188.84 K, Crystal	112.46 ± 1.1
190 K, Crystal	111.75 ± 1.1
190.92 K, Crystal	113.85 ± 1.1
192.99 K, Crystal	115.1 ± 1.1
195 K, Crystal	115.07 ± 1.1
195.07 K, Crystal	116.42 ± 1.1
197.13 K, Crystal	117.72 ± 1.1
199.15 K, Crystal	118.98 ± 1.1
200 K, Crystal	118.62 ± 1.1
201.22 K, Crystal	120.78 ± 1.2
203.2 K, Crystal	121.75 ± 1.2
205 K, Crystal	122.4 ± 1.2
205.18 K, Crystal	123.46 ± 1.2
207.19 K, Crystal	124.73 ± 1.2
209.14 K, Crystal	126.14 ± 1.2
210 K, Crystal	126.39 ± 1.2
211.09 K, Crystal	127.51 ± 1.2
213.03 K, Crystal	128.87 ± 1.2
214.97 K, Crystal	130.45 ± 1.2
215 K, Crystal	130.57 ± 1.2
216.9 K, Crystal	132.32 ± 1.2
218.84 K, Crystal	133.96 ± 1.2
220 K, Crystal	134.91 ± 1.2
220.75 K, Crystal	135.72 ± 1.2
222.7 K, Crystal	137.13 ± 1.3
224.58 K, Crystal	138.58 ± 1.3
225 K, Crystal	139.36 ± 1.3
226.56 K, Crystal	139.98 ± 1.3
228.41 K, Crystal	141.35 ± 1.3
230 K, Crystal	143.9 ± 1.3
230.19 K, Crystal	142.86 ± 1.3
232.01 K, Crystal	144.4 ± 1.3
233.86 K, Crystal	145.93 ± 1.3
235 K, Crystal	148.46 ± 1.3
235.74 K, Crystal	147.41 ± 1.3
237.59 K, Crystal	149.22 ± 1.3
239.37 K, Crystal	150.76 ± 1.3
240 K, Crystal	153.02 ± 1.4
241.16 K, Crystal	152.29 ± 1.4
242.94 K, Crystal	153.83 ± 1.4
244.82 K, Crystal	155.45 ± 1.4
245 K, Crystal	157.52 ± 1.4
246.54 K, Crystal	157.09 ± 1.4
248.36 K, Crystal	158.9 ± 1.4
250 K, Crystal	161.95 ± 1.4
250.17 K, Crystal	160.56 ± 1.4
251.99 K, Crystal	162.22 ± 1.4
253.81 K, Crystal	163.9 ± 1.4
255 K, Crystal	166.26 ± 1.4
255.54 K, Crystal	165.36 ± 1.4
257.36 K, Crystal	167.29 ± 1.4
259.09 K, Crystal	168.63 ± 1.5
260 K, Crystal	170.45 ± 1.5
260.82 K, Crystal	170.5 ± 1.5
262.61 K, Crystal	172.01 ± 1.5
264.31 K, Crystal	173.55 ± 1.5
265 K, Crystal	174.52 ± 1.5
266.12 K, Crystal	175.31 ± 1.5
267.82 K, Crystal	177.02 ± 1.5
269.53 K, Crystal	178.52 ± 1.5
270 K, Crystal	178.5 ± 1.5
271.28 K, Crystal	180.17 ± 1.5
273.31 K, Crystal	181.94 ± 1.5
275 K, Crystal	182.44 ± 1.5
275.35 K, Crystal	183.81 ± 1.5
277.03 K, Crystal	185.45 ± 1.6
278.73 K, Crystal	187.1 ± 1.6
280 K, Crystal	186.41 ± 1.6
280.36 K, Crystal	188.67 ± 1.6
282.45 K, Crystal	190.66 ± 1.6
284.97 K, Crystal	193.03 ± 1.6
285 K, Crystal	190.55 ± 1.6
287.46 K, Crystal	195.7 ± 1.6
289.88 K, Crystal	197.97 ± 1.6
290 K, Crystal	195 ± 1.6
292.31 K, Crystal	200.61 ± 1.7
294.67 K, Crystal	203.16 ± 1.7
295 K, Crystal	199.98 ± 1.6
297.1 K, Crystal	205.53 ± 1.7
298.15 K, Crystal	203.5 ± 1.7
299.37 K, Crystal	207.64 ± 1.7
300 K, Crystal	205.75 ± 1.7
301.81 K, Crystal	210.9 ± 1.7
304.16 K, Crystal	213.44 ± 1.7
305 K, Crystal	212.62 ± 1.7
306.51 K, Crystal	215.82 ± 1.7
308.81 K, Crystal	218.8 ± 1.8
310 K, Crystal	221 ± 1.8
311.13 K, Crystal	221.26 ± 1.8
313.43 K, Crystal	224.91 ± 1.8
315 K, Crystal	231.34 ± 1.8
315.72 K, Crystal	227.54 ± 1.8
317.98 K, Crystal	230.32 ± 1.8
320 K, Crystal	244.2 ± 1.9
320.22 K, Crystal	234.71 ± 1.9
322.44 K, Crystal	240.42 ± 1.9
324.6 K, Crystal	251.25 ± 2
325 K, Crystal	260.21 ± 2
326.7 K, Crystal	266.66 ± 2.1
328.7 K, Crystal	300.96 ± 2.3
330 K, Crystal	280.12 ± 2.2
337.34 K, Liquid	308.51 ± 2.3
339.25 K, Liquid	307.6 ± 2.3
340 K, Liquid	306.94 ± 2.3
341.15 K, Liquid	306.76 ± 2.3
343.06 K, Liquid	306.95 ± 2.3
344.96 K, Liquid	308.07 ± 2.3
345 K, Liquid	308.18 ± 2.3
346.86 K, Liquid	309.65 ± 2.4
348.76 K, Liquid	311.73 ± 2.4
350 K, Liquid	313.29 ± 2.4
350.67 K, Liquid	314.26 ± 2.4
352.57 K, Liquid	316.99 ± 2.4
354.47 K, Liquid	319.51 ± 2.4
355 K, Liquid	320.24 ± 2.4
356.36 K, Liquid	322.01 ± 2.4
358.26 K, Liquid	324.95 ± 2.5
360 K, Liquid	327.6 ± 2.5
360.13 K, Liquid	327.9 ± 2.5
